Consider 15 molecules from article PMC11708044 (mBio, 2024).

Where two headings read alike, the source gives them in different places. Where a SMILES comes first, the peptide text is derived from it. Bridges are numbered along the chain shown (N, C = ends). Roman numbers before positions name the chains, in order. Where no end group is shown, it is not given here. [ ]: non-standard residue; d: D form. Ahx = NCCCCCC(=O)O

One assay deals with CCL5 and CXCL10 mRNAs. It is filed as cell-based, canine.
For the next assay, the system named is NP RNA of IAV strain PR8. The class given is cell-based, type A influenza virus (IAV).
Another assay deals with IFNα, IFNβ, Mx1 mRNAs. The class given is cell-based, canine.
The test system of assay [1] is IAV strain PR8. The class given is cell-based, type A influenza virus (IAV).
Assay [2] deals with IAV strain PR8. Set-up: species or system BALB/c mice. As to conditions: mouse, in vivo.
The next assay has as its target T1, CaMKII-KD (Rattus norvegicus, UniProt P11275).
T1 construct: made in house; host or cells: Sf21 insect cells, baculovirus (pBacPAK8)
The assay is described as follows: Kinase assay: phosphorylation of autocamtide-2 by CaMKII-KD. The class given is biochemical.

Assay [3] concerns IAV strain PR8. The class given is cell-based, type A influenza virus (IAV). This is another data set of the same source.
For assay [4], the system named is TNFα production in RAW264.7 cells. The assay is described as follows: ELISA of TNFα production in LPS-treated RAW264.7 cells. It is filed as cell-based, mouse. As to conditions: RAW264.7, peptide 30 min then LPS 10 ng/mL 24 h.
For the next assay, the system named is IL-6, TNFα, IL-1β mRNAs. The assay is described as follows: RT-qPCR of proinflammatory cytokine mRNAs in LPS-treated RAW264.7 cells (Fig. S2c). It is filed as cell-based, mouse. Particulars: for IL-1β Relative expression AV / IL-6 Relative expression AV / TNFα Relative expression AV: RAW264.7 cells, LPS = 100, mean of n = 3. Here is the method: (§1) a LPS promotes tumor necrosis factor α (TNFα) production in RAW264.7 cells. RAW264.7 cells were treated with the indicated concentration of LPS for 24 h. The amount of TNFα produced in the culture medium was measured by ELISA. Data are presented as a percentage of the control value without peptide (n = 3, mean ± SEM). **P < 0.01; ***P < 0.001 (compared with the control by ANOVA followed by one-sided Dunnett’s test). b The effects of M6 and mM3 on the activation of CaMKII in RAW264.7 cells. RAW264.7 cells were incubated with the indicated concentration of each peptide for 30 min, and then treated with 10 ng/ml LPS for 20 min. The cell lysates were analyzed by western blot using phosphorylated […] specific antibody to detect the activation of CaMKII (upper panel). Data are representative of three independent experiments. […] RAW264.7 cells were incubated with the indicated concentration of each peptide for 30 min, and then treated with10 ng/ml LPS for 3 h. The mRNA level of each proinflammatory cytokine was analyzed by quantitative RT-qPCR. Data are presented as the amount of each mRNA relative to that of LPS treatment only (n = 3, mean ± SEM). **P < 0.01, ***P < 0.001 (compared with the control by ANOVA followed by one-sided Tukey’s test).
Background: In qPCR the cycle at which signal appears reflects the starting amount.

Assay [5] relates to CaMKII Thr286 autophosphorylation. The assay is described as follows: Western blot of LPS-induced CaMKII activation in RAW264.7 cells (Fig. S2b). It is filed as cell-based, mouse. Here is the method: as §1

T1 sequence (P11275 13-271 limits assumed): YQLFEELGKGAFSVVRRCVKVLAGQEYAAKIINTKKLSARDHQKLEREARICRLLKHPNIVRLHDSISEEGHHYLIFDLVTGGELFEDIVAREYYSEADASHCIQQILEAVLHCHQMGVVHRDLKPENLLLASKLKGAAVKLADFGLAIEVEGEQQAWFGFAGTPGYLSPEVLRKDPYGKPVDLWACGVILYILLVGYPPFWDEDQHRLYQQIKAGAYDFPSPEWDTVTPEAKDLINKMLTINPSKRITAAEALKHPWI

Regarding `O=C1c2c(O)c(=O)ccn2N([C@@H]2c3ccccc3SCc3c2ccc(F)c3F)[C@@H]2COCCN12` [BXA, Baloxavir acid], in the assay on CCL5 and CXCL10 mRNAs, the “expression of CXCL10 and CCL5 mRNAs” value is “also increased their expression”. Moreover, in the assay on NP RNA of IAV strain PR8, the “infection-induced expression of NP mRNA” value is given as “efficiently inhibited”. Moreover, in the assay on IFNα, IFNβ, Mx1 mRNAs, the “expression of IFNα and β mRNAs early in infection” value was “rather increased the expression of both mRNAs”; the “expression of IFNα and β mRNAs later in infection” value is “greatly reduced”. For the same molecule, the “infection-induced cytopathicity” value in the assay with IAV strain PR8 [1] is reported as “efficiently inhibited”.
`Cc1nn(CC(F)(F)F)cc1Nc1ncc(Br)c(NCc2ccc(S(N)(=O)=O)cc2)n1` [GSK8612]: the “IAV-induced cytopathicity of MDCK cells, time of addition” value in the assay on IAV strain PR8 [1] was “best when GSK8612 was added up to 3 h after infection”.
On to `COc1ccc(S(=O)(=O)N(CCO)c2ccccc2CN(C)C/C=C/c2ccc(Cl)cc2)cc1` [KN-93], for which the “protection from mortality” value in the assay on IAV strain PR8 [2] was “provided no protection”.
The term IC50 denotes the concentration that inhibits the measured activity by half. Consider `CSCC[C@H](N)C(=O)N[C@@H](C)C(=O)N[C@@H](CCCNC(=N)N)C(=O)N[C@@H](CCCNC(=N)N)C(=O)N[C@@H](CCCNC(=N)N)C(=O)N[C@@H](CC(C)C)C(=O)N[C@@H](CC(C)C)C(=O)N[C@@H](CC(C)C)C(=O)N[C@@H](CC(C)C)C(=O)N[C@@H](CC(C)C)C(=O)N[C@@H](C)C(=O)N[C@@H](CCCNC(=N)N)C(=O)N[C@@H](Cc1c[nH]cn1)C(=O)N[C@@H](Cc1c[nH]cn1)C(=O)N[C@@H](C)C(=O)N[C@@H](CCCCN)C(=O)N[C@@H](CCCCN)C(=O)N[C@@H](CCCCN)C(=O)NCCCCCC(=O)O` [M1] (H-MARRRLLLLLARHHAKKK[Ahx]-OH), for which, at CaMKII-KD (read-out: IC50), the IC50 was found to be 29.4 µM.
The same measure, in the same setting: next, `CC[C@H](C)[C@H](NC(=O)[C@H](CCCNC(=N)N)NC(=O)[C@H](CCCNC(=N)N)NC(=O)[C@H](C)NC(=O)[C@@H](N)CCSC)C(=O)N[C@@H](CC(C)C)C(=O)N[C@@H](CC(C)C)C(=O)N[C@@H](CC(C)C)C(=O)N[C@@H](CC(C)C)C(=O)N[C@@H](CC(C)C)C(=O)N[C@@H](C)C(=O)N[C@@H](CCCNC(=N)N)C(=O)N[C@@H](Cc1c[nH]cn1)C(=O)N[C@@H](Cc1c[nH]cn1)C(=O)N[C@@H](C)C(=O)N[C@@H](CCCCN)C(=O)N[C@@H](CCCCN)C(=O)N[C@@H](CCCCN)C(=O)NCCCCCC(=O)O` [M2] (H-MARRILLLLLARHHAKKK[Ahx]-OH): 34 µM; `CC[C@H](C)[C@H](NC(=O)[C@H](CCCNC(=N)N)NC(=O)[C@H](CCCNC(=N)N)NC(=O)[C@H](C)NC(=O)[C@@H](N)CCSC)C(=O)N[C@@H](CC(C)C)C(=O)N[C@@H](CC(C)C)C(=O)N[C@@H](CC(C)C)C(=O)N[C@@H](CC(C)C)C(=O)N[C@@H](CC(C)C)C(=O)N[C@@H](C)C(=O)N[C@@H](CCCNC(=N)N)C(=O)N[C@@H](CC(C)C)C(=O)N[C@@H](Cc1c[nH]cn1)C(=O)N[C@@H](C)C(=O)N[C@@H](CCCCN)C(=O)N[C@@H](CCCCN)C(=O)N[C@@H](CCCCN)C(=O)NCCCCCC(=O)O` [M3] (H-MARRILLLLLARLHAKKK[Ahx]-OH): 19.4 µM.
Still for that read-out and setting: next, `CC[C@H](C)[C@H](NC(=O)[C@H](CCCNC(=N)N)NC(=O)[C@H](C)NC(=O)[C@@H](N)CCSC)C(=O)N[C@H](C(=O)N[C@@H](CC(C)C)C(=O)N[C@@H](CC(C)C)C(=O)N[C@@H](CC(C)C)C(=O)N[C@@H](CC(C)C)C(=O)N[C@@H](CC(C)C)C(=O)N[C@@H](C)C(=O)N[C@@H](CCCNC(=N)N)C(=O)N[C@@H](CC(C)C)C(=O)N[C@@H](Cc1c[nH]cn1)C(=O)N[C@@H](C)C(=O)N[C@@H](CCCCN)C(=O)N[C@@H](CCCCN)C(=O)N[C@@H](CCCCN)C(=O)NCCCCCC(=O)O)[C@@H](C)CC` [M5] (H-MARIILLLLLARLHAKKK[Ahx]-OH): 11.1 µM; `CC[C@H](C)[C@H](NC(=O)[C@H](CCCNC(=N)N)NC(=O)[C@H](CCCNC(=N)N)NC(=O)[C@H](C)NC(=O)[C@@H](N)CCSC)C(=O)N[C@@H](CC(C)C)C(=O)N[C@@H](CC(C)C)C(=O)N[C@@H](CC(C)C)C(=O)N[C@@H](CC(C)C)C(=O)N[C@@H](CC(C)C)C(=O)N[C@@H](C)C(=O)N[C@@H](CC(C)C)C(=O)N[C@@H](CC(C)C)C(=O)N[C@@H](Cc1c[nH]cn1)C(=O)N[C@@H](C)C(=O)N[C@@H](CCCCN)C(=O)N[C@@H](CCCCN)C(=O)N[C@@H](CCCCN)C(=O)NCCCCCC(=O)O` [M6] (H-MARRILLLLLALLHAKKK[Ahx]-OH): 12.3 µM.
Regarding `CO/C1=C\C(C)=C\[C@@H](C)[C@@H](O)[C@@H](C)C/C(C)=C/C=C/[C@H](OC)[C@@H]([C@@H](C)[C@@H](O)[C@H](C)[C@@]2(O)C[C@@H](O)[C@H](C)[C@@H](C(C)C)O2)OC1=O` [baf], the “DiO positive vesicles (DiO/R18) Average” value in the assay with IAV strain PR8 [3] is reported as 0.08663.
For the molecule `CO/C1=C\C(C)=C\[C@@H](C)[C@@H](O)[C@@H](C)C/C(C)=C/C=C/[C@H](OC)[C@@H]([C@@H](C)[C@@H](O)[C@H](C)[C@@]2(O)C[C@@H](O)[C@H](C)[C@@H](C(C)C)O2)OC1=O` [bafilomycin A1, reference compound], in the assay on IAV strain PR8 [3], the “fusion process / virus entry into cells” value is “efficiently inhibited virus entry into cells”.
Molecule “I: MARRILLLLLALLHAKKK[Ahx]KK-NH2 / II: MARRILLLLLALLHAKKK[Ahx]K / III: MARRILLLLLALLHAKKK[Ahx] / IV: MARRILLLLLALLHAKKK[Ahx] (amide I:20-IV:C, I:21-II:C, II:20-III:C) [T6]” came in with an IC50 against CaMKII-KD of 32.2 µM.
The same measure, in the same setting: next, “I: MARRILLLLLARHHAKKK[Ahx]KK-NH2 / II: MARRILLLLLARHHAKKK[Ahx]K / III: MARRILLLLLARHHAKKK[Ahx] / IV: MARRILLLLLARHHAKKK[Ahx] (amide I:20-IV:C, I:21-II:C, II:20-III:C) [T2]”: 14.1 µM; “I: MARRILLLLLARLHAKKK[Ahx]KK-NH2 / II: MARRILLLLLARLHAKKK[Ahx]K / III: MARRILLLLLARLHAKKK[Ahx] / IV: MARRILLLLLARLHAKKK[Ahx] (amide I:20-IV:C, I:21-II:C, II:20-III:C) [T3]”: 8.6 µM; “I: MARRRLLLLLARHHAKKK[Ahx]KK-NH2 / II: MARRRLLLLLARHHAKKK[Ahx]K / III: MARRRLLLLLARHHAKKK[Ahx] / IV: MARRRLLLLLARHHAKKK[Ahx] (amide I:20-IV:C, I:21-II:C, II:20-III:C) [T1]”: 2.4 µM.
As for “myr-Met-Ala-[no. 3 or 6 motif]-Ala [mM3, N-terminal myristoylated-M3 (myr-Met-Ala-[no. 3 motif]-Ala)]”, in assay [4], the “inhibition of TNFα production” value is “inhibited TNFα production similarly to M6”. The “transcription of IL-6, TNFα and IL-1β” value in the assay on IL-6, TNFα, IL-1β mRNAs (RAW264.7, peptide 30 min then 10 ng/ml LPS 3 h, RT-qPCR) is given as “efficiently inhibited”. Further, in the assay on IL-6, TNFα, IL-1β mRNAs (peptide only (no LPS)), the “IL-1β Relative expression AV” value turned out to be 0.006044, the “IL-6 Relative expression AV” value stood at 0.006603 and the “TNFα Relative expression AV” value came out at 2.34. Moreover, in the assay with IL-6, TNFα, IL-1β mRNAs (peptide+LPS), the “IL-1β Relative expression AV” value turned out to be 16.8504, the “IL-6 Relative expression AV” value is on record as 27.8458 and the “TNFα Relative expression AV” value was 57.9321. In addition, the “LPS-induced Thr286 autophosphorylation of CaMKII” value in [5] (RAW264.7, peptide 30 min then 10 ng/ml LPS 20 min, western blot) was “efficiently inhibited”. For the same molecule, the “Phosphorylation of CaMKII (ratio) AV” value in assay [5] (peptide 10µM, RAW264.7 cells, (-) = 1, mean of n = 3) is given as 0.8346. The “inhibitory effect on IAV cytopathicity, single cycle of infection” value with IAV strain PR8 [1] is on record as “greatest inhibitory effect on IAV cytopathicity at concentrations up to 3 µM”.
